Laboratory results taken from patent publication US8865672B2, “Prevention of tissue ischemia and related methods” (The United States of America, as represented by the …, priority 2006, dated 2014).

Tests used:
[1] = test system: full thickness skin grafts in mice; assay: Full thickness skin graft (FTSG) model; type: in vivo, mouse; settings: for FTSG survival: wild type FTSG and wound beds infiltrated at grafting
Description: Wild type, TSP1 null, CD47 null and CD36 null mice were matched for sex and age. Anesthesia was induced by and maintained with inhalation isoflurane. Body temperature was maintained at 37° C. with a heating pad during the procedure. The dorsal surface was clipped of hair and depilated with Nair®. The skin was then cleansed with surgical soap and alcohol and the animals draped. Using sterile technique, a 1×1 cm FTSG incorporating the panniculus carnosus, subcutaneous tissues and skin were raised. Graft dimensions were marked on the animal skin surface with the aid of a template to insure consistency in dimension. Grafts were in the midline of the animal and secured with four interrupted 5-0 nylon sutures. Sutures were so placed as to include the fascia of the dorsal musculature to provide increased immobilization of grafts to the underlying wound bed Animals were awakened and returned to individual cages and allowed ad libitum access to food and water. Trauma to FTSG was not encountered during the post-operative interval since grafts were located in the dorsal midline over the mid thoracic area and each animal was housed individually following surgery. On postoperative day three or seven, the animals were again anesthetized with inhalation isoflurane and skin graft survival evaluated.
The groups of animals utilized and the treatments received as indicated either at the time of skin grafting and/or during the post-operative interval are summarized in FIG. 21. Animals treated with ISDN (1 mg/ml) or L-NAME (0.5 mg/ml) had ad libitum access to drinking water containing the given concentrations of agents during the post-operative interval. Animals treated with a CD47 monoclonal antibody (Ab clone 301) or an isotype matched control antibody (Ig2α) underwent injection of 40 μg delivered as 10 μl of a 4 mg/ml stock in 100 μl of PBS with equal volumes injected between the wound bed and graft prior to suturing the graft in place. Animals treated with a CD47 morpholino oligonucleotide underwent injection of the FTSG and wound bed with 10 μmol/L in 250 μl of PBS with 125 μl volumes injected in the graft and wound bed, respectively prior to suturing the graft in place.
The necrotic areas of the FTSG were determined by color, refill, eschar, and the pin-prick test. The outlines of viable and nonviable areas were traced using transparent film, and the area of necrosis cut from the template and the area of skin graft necrosis versus total skin graft area determined by comparison of the original template weight to the weight of the cut template utilizing the method described by Ueda (Ueda et al., J Surg Res 80(2):200-204, 1998). Skin graft survival area was presented as the ration of graft survival on post-operative day three or seven divided by the original graft area multiplied by 100%. Additionally, digital images were then acquired using an Olympus C5500 digital camera at a fixed distance (20 cm perpendicular to the animal) under standard room lighting with autoflash and macro settings engaged and uploaded for image analysis of tissue survival with a standard software program (Image-Pro Plus, Media Cybernetics, Inc., Silver Spring, Md.). […]
Skin graft wound beds were assessed at indicated time points (72 hours or 7 days post-operatively) for visible alterations in vascularity under 5× magnification. […] Visible vessels without ramifications and branches were counted once. […]

[2] = test system: ischemic hindlimbs in mice; assay: Hindlimb ischemia model; type: in vivo, mouse; settings: ischemic wild type hindlimbs; for hindlimb tissue necrosis: morpholino 10 μM to thigh musculature
Description: Wild type C57BL6, TSP1 null, CD47 null and CD36 null mice, age and sex matched, underwent ligation of the left external iliac and common femoral arteries. The right limb served as control. All animals underwent examination every 24 h to assess clinical ischemia based on a previously published index (Paek et al., J Vasc Surg. 36:172-179, 2002). At the end of 3 or 7 days animals were euthanized, and the tibialis anterior muscles from the right and left limbs were harvested, weighed and processed for mitochondrial viability.
Mitochondrial viability of hindlimb muscle biopsies was assessed by the reduction of a tetrazolium salt to water insoluble formazan through mitochondrial oxidation as described (Bonheur et al., J Surg Res. 116:55-63, 2004). Tibialis anterior muscle biopsies were weighed and incubated in 3 ml of PBS supplemented 1:10 with 3-(4,5-dimethylthiazol-2-yl)-2,5 diphenyl tetrazolium stock (MTT, Promega, Madison, Wis.) for 3 h in the dark at 37° C., washed with distilled water and blotted dry. The formazan salt was extracted in 3 ml of 2-propranol for 6 hours in the dark at 37° C. Absorbance for 200 μl aliquots was determined at 425 nm on a microplate reader. Muscle samples were dried at 90° C. and weighed again. Results were expressed as absorbance normalized to dry tissue weight.

[3] = test system: white hairless Yucatan miniature pig VSMC; assay: Intracellular cGMP in porcine VSMC; type: cell-based
Description: White hairless Yucatan miniature pig VSMC were plated onto culture plates (Nunc, Roskilde, Denmark) at a the indicated cell density in smooth muscle cell growth medium+2% FCS and cultured until approximately 90% confluent. Cultured cells were treated according to the recommendation of the manufacturer with morpholinos (10 μM) and delivery agent (Endoporter® 6 μl/ml) and used within 48 hours of treatment.
White hairless Yucatan miniature pig VSMC (10^4 cells/well) grown overnight in 12-well culture in SM-GM containing 2% FCS and then weaned off serum over 48 h before treatment with NO donors and other agents in serum/additive free medium+0.1% BSA. Intracellular cGMP levels were determined using an enzyme immunoassay (Amersham, GE Health Care, UK).

VASP = assay: Phospho-Ser239 VASP Western blotting in platelets; type: cell-based, human; settings: 8Br-cGMP 100 μM, TSP1 2.2 nM
Description: Washed human platelets (resuspended in Tyrode's buffer to 3×10^8 platelets/mL to a final volume of 0.5 mL) were incubated at 37° C. for 30 minutes before treatment. TSP1 was added 15 minutes prior to treatment. Immediately following treatment, platelets were pelleted at 13,000×g at 4° C. for 15 seconds and resuspended in 1 mL of a lysis buffer containing 10 mM Tris-HCl (pH 7.5), 150 mM NaCl, 1 mM EDTA, 1 mM Na3VO4, 40 mM NaF, 1 μg/mL aprotinin, 1 μg/mL leupeptin, 1 mM phenylmethysulfonylfluoride and 1% […]. This suspension was placed at 4° C. with gentle agitation for 5 minutes before centrifugation at 13000×g for 5 minutes at 4° C. 5 μg lysates were electrophoresed on 4-12% Bis-Tris NuPAGE gels, transferred to Immobilon PVDF membranes and probed with a rabbit polyclonal antiserum against Serine 239-phosphorylated VASP (Santa Cruz Biotechnology, Santa Cruz, Calif.).

CGTCACAGGCAGGACCCACTGCCCA (all phosphorodiamidate morpholino (PMO)) [CD47 morpholino]
H & E histology of treated wild type FTSG ([1]; mouse, in vivo): essentially normal tissue architecture without evidence of necrosis
FTSG survival [1]: 79±5%
wound bed vascular index ([1]; wild type wound beds): substantial increases in visible vasculature
muscle mitochondrial viability [2]: increased muscle mitochondrial viability
hindlimb tissue necrosis [2]: essentially no tissue necrosis
ability of TSP1 to suppress NO-stimulated cGMP after pretreatment ([3]; porcine VSMC, TSP1 2.2 nM): resistant to suppression by TSP1
basal cGMP levels ([3]; resting porcine VSMC): elevated

CGTgACAGcCAcGACCgACTGCgCA (antisense CGTGACAGCCACGACCGACTGCGCA; all phosphorodiamidate morpholino (PMO)) [control morpholino, reference compound]
FTSG survival [1]: significant graft necrosis and loss
hindlimb tissue necrosis [2]: did not protect

TSP1: thrombospondin-1 prepared from human platelets
VASP phosphorylation at Ser239 (VASP): inhibited
NO-stimulated increase in cGMP ([3]; control and mismatch treated porcine VSMC, TSP1 2.2 nM): blocked the increase in cGMP
